# Data as given in US11926826B2, “Twist signaling inhibitor compositions and methods of using the same” (City of Hope, priority 2016, dated 2024).
# Assays:
# Ovcar8-IP tumors = test: Ovcar8-IP intraperitoneal tumor model in NSG mice, MSN-siRNA with or without cisplatin; assay type: in vivo; details: siRNA alone, without cisplatin
# Protocol: Animal Studies. The animal studies conducted in these experiments were done in accordance with a protocol approved by the Institutional Animal Care and Use Committee at the City of Hope Beckman Research Institute. A total of 48 female NOD.Cg-Prkdc^scidIl2rg^tm1Wj1/SzJ (NSG) mice (The Jackson Laboratory, Bar Harbor, ME) were used. Ten week old (on average) mice were administered an intraperitoneal injection (IP) of 2.5×10^6 Ovcar8-IP cells in 200 μl of RPMI media. For all studies, mice were placed into four groups: MSN-siQ, MSN-siQ+cisplatin, MSN-si419H, and MSN-si419H+cisplatin (n=4 or n=8). Previous reports show no cellular uptake without MSNs^14, thus a siRNA-only group was not added to this study.
# Bioluminescent imaging of mice (using Xenogen IVIS 100 biophotonic imaging system, STTARR, Toronto, Ontario, Canada) commenced seven days after injection of tumor cells in order to ensure engraftment, and continued once a week for four weeks. Mice were given a 100 μl IP injection of 20 mg/ml D-Luciferin (PerkinElmer, Waltham, MA). Ten minutes after the D-luciferin injection, mice were anesthetized with isoflurane (2%-5%) and placed in the biophotonic imager, and images were taken within two minutes. An alfalfa-free version of the regular rodent diet (alfalfa-free CA-1) was administered to the siQ mice to prevent autofluorescence from the regular diet.
# IP injections of MSN+siRNA (siQ fluorescently labeled with ALEXAFLUOR® 647 or si419H) were conducted one week after the inoculation of Ovcar8-IP cells and done once or twice per week for a total of four weeks. Mice received 105 μl of 500 ng/μl MSN complexed with 15 μl of 10 μM siRNA per week, divided into one full or two half doses (n=4 and n=8, respectively). This is equivalent to […] MSN/week. Weekly 3 mg/kg IP cisplatin injections were given starting two weeks after initial inoculation of cells.
# At completion of the experiment, all animals were euthanized via CO2 asphyxiation. […]
# Statistics. All in vivo data was analyzed using one-way ANOVA with correction for multiple comparisons, comparing all groups to MSN-siQ treatment group. […]
# TWIST [1] = test: TWIST knockdown after MSN delivery of siRNA in ovarian cancer cell lines; assay type: cell-based; details: A2780R and Ovcar8; loaded onto MSNs
# Protocol: MSN design and delivery. Mesoporous silica nanoparticles (MSNs) were synthesized utilizing the sol-gel method as described previously. First, 250 mg 95% cetyltrimethylammonium bromide (CTAB) was dissolved in 120 ml of water with 875 μl 2M sodium hydroxide solution, at 80° C. Next, 1.2 ml of 98% tetraethylorthosilicate was added. After 15 min, 300 μl of 42% 3-(trihydroxysilyl) propyl methylphosphonate was added, and the mixture was stirred 2 hr. Particles were collected using centrifugation and washed with methanol. Acidic methanol was then used to remove any remaining CTAB surfactants. Zeta potential at 50 μg/mL was 43.75 mV [14]. All chemicals were obtained from Aldrich (St. Louis, MO). Particles were ˜120 nm in diameter, with 2.5 nm pores. Low molecular weight (1.8 kD branched polymer) polyethyleneimine (PEI) was electrostatically attached to the particle surface to provide a positive change to attract negatively charged siRNA [21]. To complex siRNA for in vitro experiments, 10 μl siRNA at 10 μM was mixed with 70 ul MSNs at 500 μg/ml and 20 μl water, and the mixture was incubated overnight at 4° C. on a roller. The following day, 100 μl of the MSN-siRNA complexes was added to each well of a 6-well plate containing 1900 μl normal medium.
# Western Blotting. Following siRNA treatment, cells were pelleted and lysed in RIPA buffer. Protein concentration was determined by BCA assay (Thermo Fisher). Following SDS-PAGE, protein was transferred to Amersham PVDF membrane (Genesee Scientific) using a BioRad Trans-Blot SD semi-dry transfer unit. Blots were then blocked in milk for one hour at room temperature or overnight at 4° C. Incubation with primary antibody took place for one hour at room temperature or overnight at 4° C. Antibodies were diluted in 5% milk, with 0.1-0.2% Tween-20. Antibodies used were TWIST 2c1a (Santa Cruz Biotechnology, Dallas, TX) at 1:250-1:500 dilution, β-Actin, A1978 (Sigma Aldrich, St. Louis, MO) at 1:2500-1:5000 dilution; and Horseradish Peroxidase (HRP) conjugated anti-mouse secondary antibodies. […]
# TWIST [2] = test: TWIST knockdown after YTZ3-15 delivery of siRNA in ovarian cancer cell lines; assay type: cell-based
# Protocol: PAMAM dendrimer design and delivery. The polyamidoamine (PAMAM) dendrimer used in this study is the […] third generation dendrimer, illustrated in FIG. 16A and previously described. To complex the dendrimer with siRNA, YTZ3-15 at 240 μM was mixed with […] in OptiMEM Low Serum Medium (Thermo Fisher). Upon complexing with siRNA, dendrimers form micelle structures with siRNA at the surface and the hydrophobic tails sequestered in the core (FIG. 16B). 14.6 μl YTZ3-15 and 10 μl siRNA were used per well of a 6-well plate. Final concentrations of YTZ3-15 and siRNA once added to cells were 1.75 μM and 50 nm, respectively. Where indicated, 3.5 μM YTZ3-15 and 100 nm siRNA were used for Ovcar8.
# Western Blotting. Following siRNA treatment, cells were pelleted and lysed in RIPA buffer. Protein concentration was determined by BCA assay (Thermo Fisher). Following SDS-PAGE, protein was transferred to Amersham PVDF membrane (Genesee Scientific) using a BioRad Trans-Blot SD semi-dry transfer unit. Blots were then blocked in milk for one hour at room temperature or overnight at 4° C. Incubation with primary antibody took place for one hour at room temperature or overnight at 4° C. Antibodies were diluted in 5% milk, with 0.1-0.2% Tween-20. Antibodies used were TWIST 2c1a (Santa Cruz Biotechnology, Dallas, TX) at 1:250-1:500 dilution, β-Actin, A1978 (Sigma Aldrich, St. Louis, MO) at 1:2500-1:5000 dilution; and Horseradish Peroxidase (HRP) conjugated anti-mouse secondary antibodies. For film-based westerns, Blue Devil film (Genesee Scientific) and ECL Plus chemiluminescent substrate (Thermo Fisher) were used to detect protein. For digital westerns, the Syngene Pxi4 digital blot imager and Michigan Diagnostics FemtoGlow chemilumescent substrate were used.
substance,measurement,setting,value
"si419: anti-TWIST siRNA; passenger 5′-GGACAAGCUGAGCAAGAUU-3′ (SEQ ID No: 1), guide 5′-AAUCUUGCUCAGCUUGUCCUU-3′ (SEQ ID No: 2) (listed as RNA, chemistry not fully specified)",change in tumor weight,Ovcar8-IP tumors,did not produce a statistically significant change in tumor weight
same,TWIST knockdown,TWIST [1],robust TWIST knockdown lasting one week post transfection
same,TWIST knockdown,TWIST [2]; A2780R,successfully knocked down TWIST
same,TWIST knockdown,"TWIST [2]; Ovcar8, double the usual dose (100 nM siRNA)",minimal
